Assay results reported in the NIST ThermoML archive (doi:10.1021/je400178k).

Test: molar heat capacity at constant pressure; xn = mol fraction of the nth substance listed
Details: 101 kPa, Liquid, Small sample (50 mg) DSC

CN1CCNCC1 [N-methylpiperazine] + O
molar heat capacity at constant pressure [J/K/mol]
Details	x1 = 0.099	x1 = 0.1998	x1 = 0.2995	x1 = 0.4009	x1 = 0.4983	x1 = 0.6007	x1 = 0.6994	x1 = 0.7992	x1 = 0.8992	x1 = 1
298.15 K	99.4	116	128.8	141.4	153.8	166.6	179	191.4	203.6	213.9
303.15 K	100.6	117.3	130.4	143.3	155.6	168.2	180.5	192.7	204.7	214.4
308.15 K	101.6	118.6	131.9	144.8	157.1	169.7	182	194.3	205.8	215
313.15 K	102.7	119.9	133.4	146.4	158.6	171.3	183.4	195.4	206.8	215.7
318.15 K	103.7	120.8	134.6	147.7	159.8	172.7	184.7	196.7	207.8	216.4
323.15 K	104.6	122.1	136.2	149.3	161.4	174	185.7	197.5	208.5	216.9
328.15 K	105.6	123.5	137.8	151.1	163	175.3	186.9	198.5	209.2	217.3
333.15 K	106.1	124.8	139.4	153.3	165.5	177.3	188.2	198.9	209.3	217.2
338.15 K	106.6	126.1	140.9	154.4	166.8	178.4	189	198.5	208.2	215.5
343.15 K	107.3	127.3	142.4	156	168.2	179.8	190.6	200.1	209.2	216.2
348.15 K	108.2	128.5	143.8	157.6	170	181.6	192.4	202.3	211.4	217.6
353.15 K	109	129.7	145.2	159.2	171.5	183	193.8	203.7	212.7	218

CN1CCN(C)CC1 [1,4-dimethylpiperazine] + O
molar heat capacity at constant pressure [J/K/mol]
Details	x1 = 0.1	x1 = 0.2007	x1 = 0.2992	x1 = 0.4011	x1 = 0.5	x1 = 0.6015	x1 = 0.6993	x1 = 0.799	x1 = 0.8983	x1 = 1
298.15 K	108.6	122.7	135.3	148.5	159.8	171.1	183.7	195.4	206.1	216.5
303.15 K	110.2	124.5	137.6	150.9	162.6	174.8	188.1	199.9	211.3	221.7
308.15 K	111.1	125.9	139.7	152.3	164.9	176.4	189.9	202.1	212.6	222.1
313.15 K	112	127.8	141.9	154.4	166.7	178.5	192.3	204.4	214.6	223.4
318.15 K	113	129.8	144.1	156.5	169	180.6	194.4	206.7	216.5	224.6
323.15 K	114.3	132.1	146.3	158.2	171	182.5	196.6	208.8	218	225.3
328.15 K	115.5	134.5	148.7	160.6	172.7	184.8	198.7	210.8	219.8	225.7
333.15 K	116.4	136.4	151.5	163.3	174.8	186.4	200.6	213.1	221.6	227.5
338.15 K	117.4	137.7	153.5	165.8	177.1	188.5	202.8	215.2	223.5	228.5
343.15 K	118.4	139.3	156.2	169	179.7	191.4	205.4	217.7	225.5	229.6
348.15 K	119.5	141	157.8	171.3	182.6	194.4	208.5	220.6	227.9	231.7
353.15 K	120.8	142.4	159.4	173.6	185.7	198.7	213.5	225.5	233.5	235.9

OCCN1CCOCC1 [4-morpholineethanol] + O
molar heat capacity at constant pressure [J/K/mol]
Details	x1 = 0.0998	x1 = 0.1985	x1 = 0.2979	x1 = 0.3969	x1 = 0.4952	x1 = 0.6017	x1 = 0.7031	x1 = 0.7657	x1 = 0.8977	x1 = 1
298.15 K	101	120.8	140.3	159.5	177.4	195.6	212.8	223.5	246.5	263.9
303.15 K	102.4	123.6	142.6	162.4	180	198	214.7	226	248.4	265.3
308.15 K	103.8	125.7	144.6	165	182.6	200.3	217.1	228.3	250.8	267.1
313.15 K	105.4	127.9	146.7	167.8	185.5	203	219.7	230.8	253.1	269.2
318.15 K	107.2	130.4	148.9	171	188.6	205.9	222.5	233.3	255	270.8
323.15 K	109	133	152.3	174.4	191.8	208.7	225.5	235.8	257	272.6
328.15 K	111.4	136	156.3	178.4	195.5	211.8	228.7	238.6	259.1	274.3
333.15 K	114.2	139.3	160.3	183	199.7	215.6	232.5	242.5	261.7	276.2
338.15 K	117.4	143.2	165	188.6	204.6	220.1	237	246.3	264.7	278.7
343.15 K	121.1	147.7	170.6	194.6	209.9	225.4	241.6	250.3	267.9	281
348.15 K	125.9	152.9	178.7	201.6	215.9	231	246.6	254.8	271.2	283.2
353.15 K	131.9	159.5	187	209.9	222.5	236.4	252.2	259.4	274.8	284.9
